The test system of this experiment is HApp (pseudoparticles harbouring the influenza hemagglutinin). It is filed as cell-based. To be noted: 11.3 µM arbidol.

On to `CCOC(=O)c1c(CSc2ccccc2)n(C)c2cc(Br)c(O)c(CN(C)C)c12.Cl` [Arb, 1H-indole-3-carboxylic acid, 6-bromo-4-[(dimethylamino)-methyl]-5-hydroxy-1-methyl-2-[(phenylthio)methyl]-, ethyl ester, monohydrochloride], for which the “Sensitivity of pseudoparticle entry to arbidol” value was “sensitive”.

The values above are taken from paper PMC3026800, “Mechanism of Inhibition of Enveloped Virus Membrane Fusion by the Antiviral Drug Arbidol” (PLoS ONE, 2011).
